# Measurements taken from patent US20200383946A1, “LIPOIC ACID FORMULATIONS” (Aciont Inc., priority 2019, published 2020).
# Assay: physchem
# Format: physicochemical
# Conditions: aqueous buffer, solubility of DHLA
# Text: Dihydrolipoic acid (DHLA) was obtained from Sigma (Cat #T8260).
# Again, the PBS helped maintain the pH within a suitable pH range.
compound,measurement,value
"O=C(O)CCCC[C@@H](S)CCS (racemic) [DHLA, Dihydrolipoic acid]",solubility,> 76 mg/mL
